Assay results from US7608718B2, “4,5-dihydro-1H-pyrazole derivatives having potent CB1-antagonistic activity” (Solvay Pharmaceuticals B.V., priority 2001, dated 2009).

SMILES | melting point [°C]
CCN(CC)S(=O)(=O)N=C(N(C)C)N1CC(c2ccccc2)C(c2ccc(F)cc2)=N1 (stereo not drawn) [Example 64, N′-((Diethylamino)sulfonyl)-N,N-dimethyl-3-(4-fluorophenyl)-4-phenyl-4,5-dihydro-1H-pyrazole-1-carboxamidine] | 159 to 160
CNC(=NS(=O)(=O)N(C)C)N1CC(c2cccc(C(F)(F)F)c2)C(c2ccc(Cl)cc2)=N1 (stereo not drawn) | 65 to 68
CCN(CC)S(=O)(=O)N=C(NC)N1CC(O)(c2ccccc2)C(c2ccc(Cl)cc2)=N1 (stereo not drawn) [Example 57, 3-(4-Chlorophenyl)-N′-((diethylamino)sulfonyl)-N-methyl-4-hydroxy-4-phenyl-4,5-dihydro-1H-pyrazole-1-carboxamidine] | 180 to 182
CSC(=NS(=O)(=O)N1CCOCC1)N1CC(c2ccccc2F)C(c2ccc(Cl)cc2)=N1 (stereo not drawn) [Example 47, 3-(4-Chlorophenyl)-4-(2-fluorophenyl)-N-((morpholin-4-yl)sulfonyl)-4,5-dihydro-1H-pyrazole-1-carboximidothioic acid methyl ester] | 205 to 207
CONC(=NS(=O)(=O)N(C)C)N1CC(c2ccccc2)C(c2ccc(Cl)cc2)=N1 (stereo not drawn) [Example 34, 3-(4-Chlorophenyl)-N′-((dimethylamino)sulfonyl)-N-methoxy-4-phenyl-4,5-dihydro-1H-pyrazole-1-carboxamidine] | 170 to 172
CC(C)NC(=NS(=O)(=O)N(C)C)N1CC(c2ccccc2)C(c2ccc(Cl)cc2)=N1 (stereo not drawn) [Example 59, 3-(4-Chlorophenyl)-N′-((dimethylamino)sulfonyl)-N-isopropyl-4-phenyl-4,5-dihydro-1H-pyrazole-1-carboxamidine] | 169 to 170
CSC(=NS(=O)(=O)N(C)C)N1CC(c2ccccc2)C(c2ccc(Cl)cc2)=N1 (stereo not drawn) [Example 36, 3-(4-Chlorophenyl)-N-((dimethylamino)sulfonyl)-4-phenyl-4,5-dihydro-1H-pyrazole-1-carboximidothioic acid methyl ester] | 159 to 160
CNC(=NS(=O)(=O)N(C)C)N1CC(c2ccccc2F)C(c2ccc(Cl)cc2)=N1 (stereo not drawn) [Example 84, 3-(4-Chlorophenyl)-N′-((dimethylamino)sulfonyl)-4-(2-fluorophenyl)-N-methyl-4,5-dihydro-1H-pyrazole-1-carboxamidine] | 173 to 175
CSC(=NS(=O)(=O)N1CCOCC1)N1CC(c2ccccc2)C(c2ccc(Cl)cc2)=N1 (stereo not drawn) | 202 to 204
CNC(=NS(=O)(=O)N1CCOCC1)N1CC(c2ccccc2F)C(c2ccc(Cl)cc2)=N1 (stereo not drawn) [Example 86, 3-(4-Chlorophenyl)-4-(2-fluorophenyl)-N-methyl-N′-((morpholin-4-yl)sulfonyl)-4,5-dihydro-1H-pyrazole-1-carboxamidine] | 165 to 168
CNC(=NS(=O)(=O)N(C)C)N1CC(c2cccc(F)c2)C(c2ccc(Cl)cc2)=N1 (stereo not drawn) [Example 85, 3-(4-Chlorophenyl)-N′-((dimethylamino)sulfonyl)-4-(3-fluorophenyl)-N-methyl-4,5-dihydro-1H-pyrazole-1-carboxamidine] | 110
CSC(=NS(=O)(=O)N1CCc2ccccc2C1)N1CC(c2ccccc2)C(c2ccc(Cl)cc2)=N1 (stereo not drawn) [Example 38, 3-(4-Chlorophenyl)-4-phenyl-N-((1,2,3,4-tetrahydroisoquinolin-2-yl)sulfonyl)-4,5-dihydro-1H-pyrazole-1-carboximidothioic acid methyl ester] | 143 to 145
CCN(CC)S(=O)(=O)N=C(SC)N1CC(c2ccccc2)C(c2ccc(Cl)cc2)=N1 (stereo not drawn) [Example 37, 3-(4-Chlorophenyl)-N-((diethylamino)sulfonyl)-4-phenyl-4,5-dihydro-1H-pyrazole-1-carboximidothioic acid methyl ester] | 141 to 143
CCCN(CC)S(=O)(=O)N=C(NC)N1CC(c2ccccc2)C(c2ccc(Cl)cc2)=N1 (stereo not drawn) [Example 1, 3-(4-Chlorophenyl)-N′-(((ethyl)propylamino)sulfonyl)-N-methyl-4-phenyl-4,5-dihydro-1H-pyrazole-1-carboxamidine] | 129 to 131
CNC(=NS(=O)(=O)N1CCCCC1)N1CC(c2cccnc2)C(c2ccc(Cl)cc2)=N1 (stereo not drawn) [Example 78, 3-(4-Chlorophenyl)-N-methyl-N′-((piperidin-1-yl)sulfonyl)-4-(pyridin-3-yl)-4,5-dihydro-1H-pyrazole-1-carboxamidine] | 174 to 177
